# Measurements taken from US6384254B1, “Quaternary ammonium salt-containing polysiloxane, making method, and fiber or fabric treating agent composition” (Shin-Etsu Chemical Co., Ltd., priority 1999, dated 2002).
# Tested on: stephelococcus Aureus
# Assay: percentage loss of bacteria on treated cloth after ten launderings, shaking flask method
# Assay type: cell-based
# Details: polyester/cotton (65%/35%) cloth dipped in treating bath (2.0 wt% silicone solids; CE1 3.5 wt% solids), laundered ten times by 103 method of JIS L-0217
# Procedure: The emulsion was diluted to an aqueous solution having a silicone solid concentration of 2.0% by weight. A polyester/cotton (65%/35%) mixed broad-cloth was dipped in the solution for one minute, nipped through rolls at a nip rate of 100%, dried at 135° C. for one minute and heat treated at 165° C. for 2 minutes. The thus treated cloth was laundered ten times in accordance with the 103 method of JIS L-0217 whereupon a percentage loss of stephelococcus Aureus was compared by the shaking flask method. The texture of the treated cloth was examined by finger touch before and after washing.
# For comparison purpose, using a 38% solids methanol solution of 3-(trimethoxysilyl)propyldimethyloctadecylammonium chloride, a 3.5 wt% solids aqueous solution was prepared. A similar experiment was carried out. This is Comparative Example 1.
compound,measurement,value
"CCCCCCCCCCCCCCCCCC[N+](C)(C)CCC[Si](OC)(OC)OC.[Cl-] [CE1, 3-(trimethoxysilyl)propyldimethyloctadecylammonium chloride]",Bacteria loss after washing (%),35%
